Results: paper doi:10.1101/2023.10.24.563163v2, “Targeting cancer with small molecule pan-KRAS degraders” (biorxiv, 2024)

Experiments:
KRAS^G12C = KRAS^G12C (Homo sapiens, UniProt P01116, G12C); experiment: cell-based; parameters: endogenous; KRAS degradation by capillary electrophoresis immunodetection; settings: NCI-H358; read-out: Dmax 24 h NCI-H358 [%]
Procedure: (§1) Protein Detection by Capillary Electrophoresis Cells (50 000) were seeded the day before treatment into 96-well clear-flat bottom plates and incubated overnight (37 °C, humidified tissue culture incubator, 5% CO2). Compounds were added from DMSO stock solution using a digital dispenser and cells are incubated at 37 °C as specified (24 hours for KRAS degradation, 6 hours for determination of pERK levels). At the end of the incubation, medium was removed, cells washed with ice cold PBS, PBS removed and 50 µL lysis buffer (Meso Scale Discovery #R60TX-2) supplemented with 1:100 protease inhibitor solution, 1:100 phosphatase inhibitor I, 1:100 phosphatase inhibitor II (Meso Scale Discovery #R70AA-1), 0.5 µL/mL Benzonase (Novagen #70664-3) and 10 mM dithiothreitol added to each well. Plates with lysis buffer were immediately transferred to -80 °C freezer for at least 2 hours and then thawed on ice. Lysates were transferred to a 96 well V-bottom plate and insoluble debris was pelleted by centrifugation for 20 min. at 4 000 rpm. 40 µL of the supernatant were transferred to a fresh Eppendorf PCR plate. Analysis of protein levels was conducted using the Wes System, ProteinSimple (https://www.bio-techne.com/) as specified by the manufacturer. Briefly, Wes Master Mix (12-230 kDa WES Separation Module, 8 × 25 capillary cartridges, ProteinSimple #SM-W004) and molecular weight markers were prepared as specified in the manufacturer’s recommendations. To detect primary antibodies, anti-rabbit (Protein Simple #DM-001) or anti-mouse (Protein Simple #DM-002) detection modules were used. 7.2 µL lysate + 1.8 µL master mix were combined and heated to 95 °C for 5 min. […] Next, we set out to test the ability of a single pan-KRAS degrading molecule, compound 4, to selectively suppress oncogenic signaling and proliferation in cancer cell lines driven by diverse KRAS mutants. To this end, we first confirmed degradation of KRAS by compound 4 in KRAS-dependent (GP2d, SW620 and NCI-H358 expressing KRAS^G12D, - G12V or -G12C, respectively) as well as in KRAS independent (A-375, HEK293) cell lines (Fig. 3A, fig. S4A). […] Both inhibition and degradation repressed the established markers of MAPK signaling pERK (fig. S4B-D) and DUSP6 (Fig. 3B, fig. S4E) in KRAS dependent cell lines. […] Neither degradation nor inhibition had appreciable antiproliferative effects in the KRAS independent cell lines A-375 and HEK293 (Fig. 3C, fig. S4F).

KRAS^G12D = KRAS^G12D (Homo sapiens, UniProt P01116, G12D); experiment: cell-based; parameters: endogenous; KRAS degradation by capillary electrophoresis immunodetection; settings: GP2d; read-out: Dmax 24 h GP2d [%]
Procedure: as §1

KRAS^G12V [1] = target: T1, KRAS^G12V (Homo sapiens, UniProt P01116, G12V); experiment: cell-based; parameters: endogenous; KRAS degradation by capillary electrophoresis immunodetection; settings: SW-620; read-out: Dmax 24 h SW620 [%]
Procedure: as §1

GP2d = experiment: cells; parameters: Inhibition of cell proliferation, 5 days; settings: 120 h, read-out: IC50 Proliferation GP2d
Source text: (§2) Next, we set out to test the ability of a single pan-KRAS degrading molecule, compound 4, to selectively suppress oncogenic signaling and proliferation in cancer cell lines driven by diverse KRAS mutants. To this end, we first confirmed degradation of KRAS by compound 4 in KRAS-dependent (GP2d, SW620 and NCI-H358 expressing KRAS^G12D, - G12V or -G12C, respectively) as well as in KRAS independent (A-375, HEK293) cell lines (Fig. 3A, fig. S4A). […] Both inhibition and degradation repressed the established markers of MAPK signaling pERK (fig. S4B-D) and DUSP6 (Fig. 3B, fig. S4E) in KRAS dependent cell lines. […] Neither degradation nor inhibition had appreciable antiproliferative effects in the KRAS independent cell lines A-375 and HEK293 (Fig. 3C, fig. S4F). […] Pan-KRAS degradation impacts MAPK signaling and cancer cell proliferation.

SW620 = experiment: cells; parameters: Inhibition of cell proliferation, 5 days; settings: Homo sapiens, SW-620, 120 h; read-out: IC50 Proliferation SW620
Source text: as §2

HiBiT-KRAS^G12D = target: T2, HiBiT-KRAS^G12D (Homo sapiens, UniProt P01116, G12D); experiment: cell-based; parameters: HiBiT-KRAS degradation, split nanoluciferase lytic detection; settings: GP5d; read-out: Dmax 24 h GP5d HiBiT [%]
T2 construct: HiBiT-tagged
Procedure: This formula was derived from the Growth Inhibition (GI) calculation used in the National Cancer Institute’s NCI-60 high-throughput screen. KRAS Degradation Assays via Detection of Split Nanoluciferase (HiBiT) To assess PROTAC-mediated degradation of HiBiT-tagged KRAS constructs, cells were seeded at 25 000 cells per well in culture medium into white bottom opaque 96-well plates (Perkin Elmer cat no. 5680). Plates were incubated at 37 °C, 5% CO2 in a humidified incubator over night to allow the cells to adhere. Test compounds (10 mM stock in DMSO) were added at logarithmic dose series using the HP Digital Dispenser D300 (Tecan), normalizing for added DMSO. […] Following incubation, 100 µL per well Promega Nano-Glo HiBiT lytic detection reagent mix (Promega Nano-Glo HiBiT Lytic Detection System #N3050), prepared according to the manufacturer´s instructions in the kit, were added. To allow for adequate cell lysis, plates were incubated on an orbital shaker for 15 min. and further incubated 30 min. at room temperature. Upon completion of cell lysis, luminescence was measured using an Envision plate reader using the Ultrasensitive Luminescence Protocol for 96-well plates. Luminescence levels were normalized by the values obtained with DMSO-treated samples and plotted as percent of DMSO control. DC50 values were computed using a three parametric logistic model. Dmax values represent the maximal extent of degradation observed and are stated as percent of control treatments.

KRAS^G12V [2] = target: T1, KRAS^G12V; parameters: endogenous; KRAS degradation by capillary electrophoresis immunodetection; settings: read-out: DC50 24 h SW620 (converted)

KRAS^G12D, sequence (P01116 whole entry G12D): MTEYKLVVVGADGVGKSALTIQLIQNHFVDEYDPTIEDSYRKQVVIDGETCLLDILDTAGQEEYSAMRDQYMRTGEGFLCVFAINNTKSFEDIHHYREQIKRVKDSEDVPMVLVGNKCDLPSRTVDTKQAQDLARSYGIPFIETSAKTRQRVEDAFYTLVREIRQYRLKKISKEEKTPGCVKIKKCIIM
T2 sequence (P01116 whole entry G12D): as above
T1 sequence (P01116 whole entry G12V): as the sequence (P01116 whole entry G12D) above, with D12V counted along it
KRAS^G12C, sequence (P01116 whole entry G12C): as the sequence (P01116 whole entry G12D) above, with D12C counted along it

Row | Dmax (KRAS^G12C) [%] | Dmax (KRAS^G12D) [%] | Dmax (KRAS^G12V [1]) [%] | IC50 (SW620) [nM] | Dmax (HiBiT-KRAS^G12D) [%] | DC50 (KRAS^G12V [2]) [nM] | Structure (SMILES) | IC50 (GP2d) [nM]
1 | – | – | 100 | – | 100 | 1200 | Cc1ncsc1-c1ccc(CNC(=O)[C@@H]2C[C@@H](O)CN2C(=O)[C@@H](NC(=O)COCCCN2CCCN(c3nccc(-c4noc([C@@]5(C)CCCc6sc(N)c(C#N)c65)n4)n3)[C@@H](C)C2)C(C)(C)C)cc1 [compound 2] | –
2 | 81 | 96 | 88 | 232 | 95 | 278 | Cc1ncsc1-c1ccc(CNC(=O)[C@@H]2C[C@@H](O)CN2C(=O)[C@@H](NC(=O)CCCCCN2CCCN(c3nccc(-c4noc([C@@]5(C)CCCc6sc(N)c(C#N)c65)n4)n3)[C@@H](C)C2)C(C)(C)C)cc1 [compound 3] | 374

The next lines start with the compound.

Row | Structure (SMILES) | Dmax (KRAS^G12C) [%] | Dmax (KRAS^G12D) [%] | Dmax (KRAS^G12V [1]) [%] | IC50 (SW620) [nM] | Dmax (HiBiT-KRAS^G12D) [%] | DC50 (KRAS^G12V [2]) [nM] | IC50 (GP2d) [nM]
3 | Cc1ncsc1-c1ccc(CNC(=O)C2CC(O)CN2C(=O)C(c2cc(OCCCCN3CCCN(c4nccc(-c5noc(C6(C)CCCc7sc(N)c(C#N)c76)n5)n4)C(C)C3)no2)C(C)C)cc1 (stereo not shown) [compound 5] | < 25 | < 15 | < 15 | 993 | – | – | 1740
4 | Cc1ncsc1-c1ccc([C@H](CO)NC(=O)[C@@H]2C[C@@H](O)CN2C(=O)[C@H](C(C)C)n2cc(OCCCCN3CCCN(c4nccc(-c5noc([C@@]6(C)CCCc7sc(N)c(C#N)c76)n5)n4)[C@@H](C)C3)nn2)cc1 [compound 7, ACBI3] | – | 99 | 83 | – | 95 | 6.9 | –
5 | Cc1ncsc1-c1ccc(CNC(=O)[C@@H]2C[C@@H](O)CN2C(=O)[C@@H](c2cc(OCCCCN3CCCN(c4nccc(-c5noc([C@@]6(C)CCCc7sc(N)c(C#N)c76)n5)n4)[C@@H](C)C3)no2)C(C)C)cc1 [compound 4] | 86 | 96 | 89 | 11 | 94 | – | 8.3
